Laboratory results as given in ChEMBL document CHEMBL2069199, “Development of isoform selective PI3-kinase inhibitors as pharmacological tools for elucidating the PI3K pathway” (Bioorg Med Chem Lett, 2012).

Legend:
[1] = target: T1, Phosphatidylinositol 4,5-bisphosphate 3-kinase catalytic subunit beta isoform (Homo sapiens, UniProt P42338); experiment: Inhibition of recombinant GST-tagged PI3K p110beta using [32P]ATP after 60 mins by scintillation proximity assay
[2] = target: Phosphatidylinositol 3-kinase catalytic subunit type 3 (Homo sapiens, UniProt Q8NEB9); experiment: Inhibition of Vps34
Chain of Phosphatidylinositol 3-kinase catalytic subunit type 3 (Q8NEB9 whole entry): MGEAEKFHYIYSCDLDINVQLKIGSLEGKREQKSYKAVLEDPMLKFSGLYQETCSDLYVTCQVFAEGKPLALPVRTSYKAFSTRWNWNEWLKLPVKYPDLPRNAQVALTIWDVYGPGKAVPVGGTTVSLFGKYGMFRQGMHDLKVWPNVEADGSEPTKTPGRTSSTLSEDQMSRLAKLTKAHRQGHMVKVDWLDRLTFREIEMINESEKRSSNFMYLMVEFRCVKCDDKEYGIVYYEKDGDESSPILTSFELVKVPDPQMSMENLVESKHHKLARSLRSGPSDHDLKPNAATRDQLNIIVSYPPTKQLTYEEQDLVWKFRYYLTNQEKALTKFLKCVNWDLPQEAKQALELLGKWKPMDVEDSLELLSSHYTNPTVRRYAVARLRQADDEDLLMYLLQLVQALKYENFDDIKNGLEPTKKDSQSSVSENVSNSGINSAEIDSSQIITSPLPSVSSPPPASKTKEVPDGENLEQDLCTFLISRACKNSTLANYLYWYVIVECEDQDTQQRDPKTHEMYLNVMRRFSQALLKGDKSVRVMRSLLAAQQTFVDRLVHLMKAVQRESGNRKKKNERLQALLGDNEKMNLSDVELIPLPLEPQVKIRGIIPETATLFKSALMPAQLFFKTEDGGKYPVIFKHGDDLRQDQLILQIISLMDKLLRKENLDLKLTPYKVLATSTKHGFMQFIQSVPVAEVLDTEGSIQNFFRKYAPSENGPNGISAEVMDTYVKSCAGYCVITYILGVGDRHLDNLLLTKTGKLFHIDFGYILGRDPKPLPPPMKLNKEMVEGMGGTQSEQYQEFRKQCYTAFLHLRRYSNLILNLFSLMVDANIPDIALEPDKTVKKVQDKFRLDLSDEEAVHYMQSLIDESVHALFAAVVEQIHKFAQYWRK

[3] = Oral bioavailability in Wistar rat at 10 mg/kg; format: ADME, organism-based; conditions: in vivo
[4] = Antiinflammatory activity in human neutrophils assessed as inhibition of fMLP-induced oxidative burst; format: functional, cell-based; conditions: neutrophil
Rattus norvegicus [5] = experiment: (§1) AUC in Wistar rat at 10 mg/kg, po; format: ADME, organism-based, Plasma; design: dose 10 mg/kg, route oral; conditions: in vivo
[6] = Cmax in Wistar rat at 10 mg/kg, po; format: ADME, organism-based; design: dose 10 mg/kg, route oral; conditions: in vivo
[7] = Half life in Wistar rat at 10 mg/kg, po; format: ADME, organism-based; design: dose 10 mg/kg, route oral; conditions: in vivo
[8] = target: DNA-dependent protein kinase catalytic subunit (Homo sapiens, UniProt P78527); experiment: Inhibition of DNA-PK
[9] = target: Serine/threonine-protein kinase mTOR (Homo sapiens, UniProt P42345); experiment: Inhibition of mTOR
[10] = Aqueous solubility of the compound at pH 6.8; format: physicochemical
[11] = Antiinflammatory activity in human B cells assessed as inhibition of mitogen-induced proliferation; format: functional, cell-based; conditions: B-cell
[12] = target: Phosphatidylinositol 4-kinase beta (Homo sapiens, UniProt Q9UBF8); experiment: Inhibition of PI4Kbeta
Chain of Phosphatidylinositol 4-kinase beta (Q9UBF8 whole entry): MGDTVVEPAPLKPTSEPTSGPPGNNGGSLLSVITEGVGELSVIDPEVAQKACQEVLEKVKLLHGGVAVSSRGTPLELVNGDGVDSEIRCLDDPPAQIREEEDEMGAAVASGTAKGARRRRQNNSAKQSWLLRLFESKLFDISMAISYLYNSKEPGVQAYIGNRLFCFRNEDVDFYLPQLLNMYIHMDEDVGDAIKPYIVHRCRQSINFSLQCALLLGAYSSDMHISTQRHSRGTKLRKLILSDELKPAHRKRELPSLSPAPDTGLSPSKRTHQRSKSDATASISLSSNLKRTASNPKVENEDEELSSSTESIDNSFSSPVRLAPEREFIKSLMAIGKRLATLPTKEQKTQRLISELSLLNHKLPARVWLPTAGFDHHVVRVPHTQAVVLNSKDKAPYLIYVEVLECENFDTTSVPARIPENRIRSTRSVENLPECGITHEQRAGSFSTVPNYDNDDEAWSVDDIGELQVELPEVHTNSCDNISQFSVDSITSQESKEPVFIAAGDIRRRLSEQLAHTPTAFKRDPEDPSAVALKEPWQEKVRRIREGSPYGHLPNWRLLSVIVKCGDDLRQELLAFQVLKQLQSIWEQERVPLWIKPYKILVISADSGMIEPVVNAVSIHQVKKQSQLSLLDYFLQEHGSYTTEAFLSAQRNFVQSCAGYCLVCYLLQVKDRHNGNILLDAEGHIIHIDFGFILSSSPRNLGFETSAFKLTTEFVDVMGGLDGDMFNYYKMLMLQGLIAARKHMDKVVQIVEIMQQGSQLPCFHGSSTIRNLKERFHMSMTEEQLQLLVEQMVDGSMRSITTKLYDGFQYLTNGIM

[13] = Antiinflammatory activity in mouse B cells assessed as inhibition of mitogen-induced proliferation; format: functional, cell-based
[14] = Tmax in Wistar rat at 10 mg/kg, po; format: ADME, organism-based; design: dose 10 mg/kg, route oral; conditions: in vivo
Rattus norvegicus [15] = experiment: Volume of distribution at steady state in Wistar rat at 10 mg/kg, po; format: ADME, organism-based; design: dose 10 mg/kg, route oral; conditions: in vivo
[16] = target: T2, Phosphatidylinositol 4,5-bisphosphate 3-kinase catalytic subunit delta isoform (Homo sapiens, UniProt O00329); experiment: Inhibition of recombinant GST-tagged PI3K p110delta using [32P]ATP after 60 mins by scintillation proximity assay
T2 sequence (O00329 whole entry): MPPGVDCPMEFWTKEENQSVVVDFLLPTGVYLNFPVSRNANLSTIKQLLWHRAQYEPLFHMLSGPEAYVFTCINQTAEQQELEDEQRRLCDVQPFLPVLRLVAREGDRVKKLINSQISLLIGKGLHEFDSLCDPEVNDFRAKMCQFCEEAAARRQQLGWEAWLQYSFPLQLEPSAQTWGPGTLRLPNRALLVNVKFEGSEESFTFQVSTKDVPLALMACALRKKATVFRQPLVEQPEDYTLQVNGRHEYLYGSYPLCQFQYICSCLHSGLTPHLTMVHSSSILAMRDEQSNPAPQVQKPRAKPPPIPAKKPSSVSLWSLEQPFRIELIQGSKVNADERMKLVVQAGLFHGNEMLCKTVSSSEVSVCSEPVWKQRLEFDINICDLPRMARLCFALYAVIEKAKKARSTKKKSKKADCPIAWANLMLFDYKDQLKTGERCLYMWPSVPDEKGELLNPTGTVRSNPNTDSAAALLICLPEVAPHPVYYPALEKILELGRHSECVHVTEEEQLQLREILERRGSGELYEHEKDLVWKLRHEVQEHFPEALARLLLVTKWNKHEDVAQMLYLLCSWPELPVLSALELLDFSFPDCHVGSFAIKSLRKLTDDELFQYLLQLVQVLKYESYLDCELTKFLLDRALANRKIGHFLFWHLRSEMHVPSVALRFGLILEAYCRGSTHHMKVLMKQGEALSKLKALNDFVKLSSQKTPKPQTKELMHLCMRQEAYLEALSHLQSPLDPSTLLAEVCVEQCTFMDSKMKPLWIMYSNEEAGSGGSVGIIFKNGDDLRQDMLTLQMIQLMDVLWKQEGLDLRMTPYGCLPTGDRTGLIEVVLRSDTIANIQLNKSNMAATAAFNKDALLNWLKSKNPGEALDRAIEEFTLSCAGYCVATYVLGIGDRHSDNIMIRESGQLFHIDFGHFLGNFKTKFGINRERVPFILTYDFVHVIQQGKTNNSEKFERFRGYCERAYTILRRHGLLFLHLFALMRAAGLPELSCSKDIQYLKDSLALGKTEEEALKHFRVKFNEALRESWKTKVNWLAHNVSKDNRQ

[17] = target: T3, Phosphatidylinositol 4,5-bisphosphate 3-kinase catalytic subunit alpha isoform (Homo sapiens, UniProt P42336); experiment: Inhibition of recombinant GST-tagged PI3K p110alpha using [32P]ATP after 60 mins by scintillation proximity assay
T3 sequence (P42336 whole entry, canonical isoform): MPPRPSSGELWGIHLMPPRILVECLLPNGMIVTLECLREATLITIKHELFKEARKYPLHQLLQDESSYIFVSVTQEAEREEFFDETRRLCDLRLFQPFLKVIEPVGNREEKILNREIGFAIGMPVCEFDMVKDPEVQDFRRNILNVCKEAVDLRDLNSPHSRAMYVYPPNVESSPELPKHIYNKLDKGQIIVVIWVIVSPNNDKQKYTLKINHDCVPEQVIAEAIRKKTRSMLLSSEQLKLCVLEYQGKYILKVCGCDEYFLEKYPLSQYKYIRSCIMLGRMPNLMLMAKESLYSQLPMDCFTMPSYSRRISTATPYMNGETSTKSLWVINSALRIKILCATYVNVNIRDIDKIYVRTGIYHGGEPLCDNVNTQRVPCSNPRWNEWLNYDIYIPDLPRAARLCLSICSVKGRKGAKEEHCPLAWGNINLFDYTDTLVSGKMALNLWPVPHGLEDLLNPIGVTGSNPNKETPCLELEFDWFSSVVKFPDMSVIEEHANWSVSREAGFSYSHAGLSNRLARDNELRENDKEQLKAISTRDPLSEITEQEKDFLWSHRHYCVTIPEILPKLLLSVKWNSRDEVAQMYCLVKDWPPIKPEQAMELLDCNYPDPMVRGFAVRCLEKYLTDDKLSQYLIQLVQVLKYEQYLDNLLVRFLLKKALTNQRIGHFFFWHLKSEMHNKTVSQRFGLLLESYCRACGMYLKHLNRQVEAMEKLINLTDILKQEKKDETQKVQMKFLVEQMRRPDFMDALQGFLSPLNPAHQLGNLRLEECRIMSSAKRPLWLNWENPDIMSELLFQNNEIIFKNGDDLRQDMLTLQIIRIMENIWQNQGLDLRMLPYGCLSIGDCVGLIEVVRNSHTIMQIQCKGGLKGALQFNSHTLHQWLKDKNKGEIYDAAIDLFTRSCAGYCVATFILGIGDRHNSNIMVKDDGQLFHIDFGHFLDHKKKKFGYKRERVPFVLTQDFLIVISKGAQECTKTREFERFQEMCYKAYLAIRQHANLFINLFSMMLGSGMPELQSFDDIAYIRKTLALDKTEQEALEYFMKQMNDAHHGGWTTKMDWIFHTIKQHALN

[18] = target: T4, Phosphatidylinositol 4,5-bisphosphate 3-kinase catalytic subunit gamma isoform (Homo sapiens, UniProt P48736)
T4 sequence (P48736 whole entry, canonical isoform): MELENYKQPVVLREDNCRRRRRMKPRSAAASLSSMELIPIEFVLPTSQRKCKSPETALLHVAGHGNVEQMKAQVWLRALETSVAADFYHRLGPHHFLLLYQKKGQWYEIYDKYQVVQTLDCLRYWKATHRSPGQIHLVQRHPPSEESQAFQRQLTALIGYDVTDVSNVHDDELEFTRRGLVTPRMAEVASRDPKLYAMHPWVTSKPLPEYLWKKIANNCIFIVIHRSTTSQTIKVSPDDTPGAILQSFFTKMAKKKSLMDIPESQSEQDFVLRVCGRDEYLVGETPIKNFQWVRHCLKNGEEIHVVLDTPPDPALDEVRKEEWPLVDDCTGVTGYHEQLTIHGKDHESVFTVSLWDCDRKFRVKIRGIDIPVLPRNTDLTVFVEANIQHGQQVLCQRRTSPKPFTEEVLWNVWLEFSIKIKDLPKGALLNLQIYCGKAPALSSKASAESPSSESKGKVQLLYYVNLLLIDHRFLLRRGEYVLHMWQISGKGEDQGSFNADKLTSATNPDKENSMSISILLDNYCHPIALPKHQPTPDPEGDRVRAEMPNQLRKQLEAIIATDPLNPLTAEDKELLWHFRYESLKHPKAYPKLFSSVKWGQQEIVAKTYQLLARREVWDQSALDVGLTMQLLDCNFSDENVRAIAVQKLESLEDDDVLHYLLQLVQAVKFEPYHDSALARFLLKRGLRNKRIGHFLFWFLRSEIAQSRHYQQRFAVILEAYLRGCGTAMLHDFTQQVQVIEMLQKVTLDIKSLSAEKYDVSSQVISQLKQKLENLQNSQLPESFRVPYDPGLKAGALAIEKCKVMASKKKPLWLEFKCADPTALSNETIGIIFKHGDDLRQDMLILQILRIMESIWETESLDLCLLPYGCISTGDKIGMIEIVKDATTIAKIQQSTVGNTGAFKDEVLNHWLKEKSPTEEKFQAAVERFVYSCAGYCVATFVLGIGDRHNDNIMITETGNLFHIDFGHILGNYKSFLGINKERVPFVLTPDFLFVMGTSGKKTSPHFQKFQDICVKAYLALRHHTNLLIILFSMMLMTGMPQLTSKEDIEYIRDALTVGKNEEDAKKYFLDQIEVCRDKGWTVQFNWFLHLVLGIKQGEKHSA
Description: Inhibition of recombinant GST-tagged PI3K p110gamma using [32P]ATP after 60 mins by scintillation proximity assay

[19] = as §1; format: ADME, organism-based, Plasma; design: dose 10 mg/kg, route oral; conditions: Wistar, plasma
[20] = Clearance in Wistar rat at 10 mg/kg, po; format: ADME, organism-based; design: dose 10 mg/kg, route oral; conditions: in vivo
[21] = target: T3, Phosphatidylinositol 4,5-bisphosphate 3-kinase catalytic subunit alpha isoform; experiment: Inhibition of recombinant GST-tagged PI3K p110alpha by KinaseGlo assay
[22] = target: T1, Phosphatidylinositol 4,5-bisphosphate 3-kinase catalytic subunit beta isoform; experiment: Inhibition of recombinant GST-tagged PI3K p110beta by KinaseGlo assay
[23] = target: T4, Phosphatidylinositol 4,5-bisphosphate 3-kinase catalytic subunit gamma isoform; experiment: Inhibition of recombinant GST-tagged PI3K p110gamma by KinaseGlo assay
[24] = target: T2, Phosphatidylinositol 4,5-bisphosphate 3-kinase catalytic subunit delta isoform; experiment: Inhibition of recombinant GST-tagged PI3K p110delta by KinaseGlo assay
Rattus norvegicus [25] = experiment: Volume of distribution at steady state in Wistar rat at 5 mg/kg, po; format: ADME, organism-based; design: dose 5 mg/kg, route oral; conditions: in vivo
[26] = target: Dual specificity protein kinase CLK2 (Homo sapiens, UniProt P49760); experiment: Inhibition of CLK2
[27] = Clearance in Wistar rat at 5 mg/kg, po; format: ADME, organism-based; design: dose 5 mg/kg, route oral; conditions: in vivo
[28] = Cmax in Wistar rat at 5 mg/kg, po; format: ADME, organism-based; design: dose 5 mg/kg, route oral; conditions: in vivo
[29] = Oral bioavailability in Wistar rat at 5 mg/kg; format: ADME, organism-based; conditions: in vivo
[30] = Tmax in Wistar rat at 5 mg/kg, po; format: ADME, organism-based; design: dose 5 mg/kg, route oral; conditions: in vivo
[31] = AUC in Wistar rat at 5 mg/kg, po; format: ADME, organism-based; design: dose 5 mg/kg, route oral; conditions: plasma
[32] = Half life in Wistar rat at 5 mg/kg, po; format: ADME, organism-based; design: dose 5 mg/kg, route oral; conditions: in vivo
[33] = target: Dual specificity protein kinase CLK1 (Homo sapiens, UniProt P49759); experiment: Inhibition of CLK1

T1 sequence (P42338 whole entry, canonical isoform): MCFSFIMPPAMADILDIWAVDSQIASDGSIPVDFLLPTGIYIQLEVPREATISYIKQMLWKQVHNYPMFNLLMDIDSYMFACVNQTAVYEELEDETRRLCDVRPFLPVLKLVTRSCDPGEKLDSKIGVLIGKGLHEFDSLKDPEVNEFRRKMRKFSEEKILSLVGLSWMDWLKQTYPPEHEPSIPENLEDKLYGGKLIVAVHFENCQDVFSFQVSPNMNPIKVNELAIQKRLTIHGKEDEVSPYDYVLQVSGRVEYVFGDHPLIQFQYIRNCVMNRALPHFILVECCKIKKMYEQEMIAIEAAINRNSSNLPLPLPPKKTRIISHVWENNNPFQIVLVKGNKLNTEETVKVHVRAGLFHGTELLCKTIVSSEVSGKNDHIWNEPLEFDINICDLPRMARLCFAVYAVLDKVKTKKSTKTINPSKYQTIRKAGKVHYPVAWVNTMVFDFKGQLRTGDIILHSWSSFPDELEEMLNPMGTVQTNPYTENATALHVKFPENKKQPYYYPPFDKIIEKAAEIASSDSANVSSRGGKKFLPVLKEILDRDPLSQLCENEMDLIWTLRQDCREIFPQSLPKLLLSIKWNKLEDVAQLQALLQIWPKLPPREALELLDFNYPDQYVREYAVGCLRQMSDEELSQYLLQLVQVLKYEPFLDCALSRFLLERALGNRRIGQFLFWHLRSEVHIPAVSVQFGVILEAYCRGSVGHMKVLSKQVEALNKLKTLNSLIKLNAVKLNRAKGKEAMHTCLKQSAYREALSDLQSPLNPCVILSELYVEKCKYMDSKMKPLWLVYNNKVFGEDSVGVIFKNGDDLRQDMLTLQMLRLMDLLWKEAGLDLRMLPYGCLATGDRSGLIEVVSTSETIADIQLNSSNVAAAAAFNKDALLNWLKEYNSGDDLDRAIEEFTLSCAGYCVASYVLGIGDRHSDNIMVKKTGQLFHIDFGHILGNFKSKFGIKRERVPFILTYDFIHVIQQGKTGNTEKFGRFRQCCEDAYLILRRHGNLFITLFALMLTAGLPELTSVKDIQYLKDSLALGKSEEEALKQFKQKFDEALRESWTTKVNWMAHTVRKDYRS

Compound | Ki [1] [µM] | IC50 [4] [µM] | Ki [16] [µM] | Ki [17] [µM] | Ki [18] [µM] | further results
Cc1cc(NC(=O)CCNC(=O)Nc2nc(C)c(-c3ccc(-n4cccn4)cc3)s2)no1 | 0.34 | 0.72 | 0.004 | 0.15 | 1.02 | IC50 [2]: > 9.1 µM; bioavailability [3]: 3%; AUC (Rattus norvegicus [5]): 0.69 µM·h; Cmax [6]: 0.05 µM; half-life [7]: 36 min; IC50 [8]: > 10 µM; IC50 [9]: > 9.1 µM; solubility [10]: < 2 µg/mL; IC50 [11]: 0.005 µM; IC50 [12]: 0.04 µM; IC50 [13]: 0.014 µM; Tmax [14]: 480 min; Vdss (Rattus norvegicus [15]): 0.4 L/kg
CC(=O)c1ccc(-c2sc(NC(=O)NCCC(=O)NC(C)(C)C)nc2C)cc1 | 0.25 | 0.22 | 0.74 | 1.89 | – | IC50 [2]: > 9.1 µM; bioavailability [3]: 57%; AUC [19]: 10.8 µM·h; Cmax [6]: 1.72 µM; half-life [7]: 48 min; IC50 [8]: > 10 µM; IC50 [9]: > 9.1 µM; IC50 [11]: 1.16 µM; IC50 [12]: 0.24 µM; IC50 [13]: 0.76 µM; Tmax [14]: 30 min; Vdss (Rattus norvegicus [15]): 1.4 L/kg; CL/F [20]: 1.38 L/h/kg
CC(=O)Nc1nc(C)c(-c2ccc(S(N)(=O)=O)cc2)s1 | 1.43 | 2.6 | 0.21 | 0.11 | 0.11 | –
CC(=O)Nc1nc(C)c(-c2ccc(S(C)(=O)=O)cc2)s1 | 1.36 | 1.93 | 0.19 | 0.2 | 0.23 | –
CC(=O)Nc1nc(C)c(-c2ccc(S(C)(=O)=O)c(Cl)c2)s1 | 1.3 | 1.93 | 0.079 | 0.035 | 0.057 | –
CC(=O)Nc1nc(C)c(-c2ccc(S(C)(=O)=O)c(Br)c2)s1 | 0.55 | 0.34 | 0.061 | 0.011 | 0.032 | –
CC(=O)Nc1nc(C)c(-c2ccc(S(C)(=O)=O)c(F)c2)s1 | – | 0.22 | – | – | – | –
CC(=O)Nc1nc(C)c(-c2ccc(S(C)(=O)=O)c(C#N)c2)s1 | 0.76 | 0.3 | 0.079 | 0.045 | 0.062 | –
CC(=O)Nc1nc(C)c(-c2ccc(S(C)(=O)=O)c(C(F)(F)F)c2)s1 | 0.87 | 0.29 | 0.074 | 0.028 | 0.061 | –
CC(=O)Nc1nc(C)c(-c2ccc(-n3cccn3)cc2)s1 | 0.41 | 0.32 | 0.019 | 0.03 | 0.11 | –
CC(=O)Nc1nc(C)c(-c2ccc(C(C)=O)cc2)s1 | 1.94 | 1.76 | 0.26 | 0.19 | 0.26 | –
Cc1nc(NC(=O)N2CCC[C@H]2C(N)=O)sc1-c1ccc(S(C)(=O)=O)cc1 | > 10 | – | 3.62 | 0.187 | 5.81 | –
Cc1nc(NC(=O)N2CCC[C@H]2C(N)=O)sc1-c1ccc(S(C)(=O)=O)c(C(F)(F)F)c1 | > 10 | – | 1.67 | 0.02 | 1.14 | –
Cc1nc(NC(=O)N2CCC[C@H]2C(N)=O)sc1-c1ccc(-n2cccn2)cc1 | 2 | 0.93 | 0.22 | 0.005 | 0.53 | IC50 [2]: > 9.1 µM; bioavailability [3]: 21%; AUC [19]: 4.1 µM·h; Cmax [6]: 0.28 µM; half-life [7]: 42 min; IC50 [8]: > 10 µM; IC50 [9]: > 9.1 µM; IC50 [11]: 0.32 µM; IC50 [12]: 0.92 µM; IC50 [13]: 0.37 µM; Tmax [14]: 240 min; Vdss (Rattus norvegicus [15]): 1.29 L/kg; CL/F [20]: 1.26 L/h/kg
NC(=O)[C@@H]1CCCN1C(=O)Nc1nc2ccc(-c3cnc(N)c(C(F)(F)F)c3)cc2s1 | – | – | – | – | – | IC50 [21]: 0.04 µM; IC50 [22]: 2.94 µM; IC50 [23]: 1.19 µM; IC50 [24]: 0.54 µM
Cc1cc(NC(=O)CCNC(=O)Nc2nc(C)c(-c3ccc(S(C)(=O)=O)c(F)c3)s2)no1 | 0.86 | – | 0.003 | 0.11 | 0.12 | –
Cc1nc(NC(=O)NCCC(=O)OC(C)(C)C)sc1-c1ccc(S(C)(=O)=O)c(F)c1 | 0.09 | – | 0.38 | 2.13 | 0.02 | –
CCn1nnc(CCNC(=O)Nc2nc(C)c(-c3ccc(S(C)(=O)=O)c(F)c3)s2)n1 | 0.32 | 0.27 | 0.47 | 1.4 | – | IC50 [2]: > 9.1 µM; Vdss (Rattus norvegicus [25]): 0.6 L/kg; IC50 [8]: > 10 µM; IC50 [9]: > 9.1 µM; IC50 [11]: 1.61 µM; IC50 [26]: 0.117 µM; IC50 [12]: 1.33 µM; IC50 [13]: 0.59 µM; CL/F [27]: 0.24 L/h/kg; Cmax [28]: 0.49 µM; bioavailability [29]: 24%; Tmax [30]: 60 min; AUC [31]: 4.31 µM·h; half-life [32]: 108 min; IC50 [33]: 0.118 µM
